From patent US20110034507A1, “FARNESOID X RECEPTOR AGONISTS” (SMITHKLINE BEECHAM CORPORATION, priority 2007, published 2011)

Biological target: T1, Human FXRα Ligand Binding Domain (Homo sapiens, UniProt Q96RI1)
T1 construct: polyhistidine (pRSET-A vector leader) (N); made in house; host or cells: E. coli BL21 (DE3), pRSET-A vector
T1 sequence (Q96RI1 237-472 isoform Q96RI1-2): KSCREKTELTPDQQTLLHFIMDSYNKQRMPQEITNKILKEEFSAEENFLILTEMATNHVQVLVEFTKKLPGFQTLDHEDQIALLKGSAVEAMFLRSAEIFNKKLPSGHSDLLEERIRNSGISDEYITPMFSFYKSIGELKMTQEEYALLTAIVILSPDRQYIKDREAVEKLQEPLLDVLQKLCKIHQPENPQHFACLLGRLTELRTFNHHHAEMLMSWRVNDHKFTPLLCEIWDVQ
Experiment: FXR Cofactor Binding Assay (ligand mediated SRC-1 cofactor peptide interaction, time resolved fluorescence)
Format: biochemical
Conditions: FXRα LBD / SRC-1 (LCD2, 676-700) peptide, TRF; read-out: Activity (pEC50) (converted)
From the text: Determination of a ligand mediated cofactor peptide interaction to quantify ligand binding to the nuclear receptor Farnesoid X Receptor (FXR). The method measures the ability of putative ligands to modulate the interaction between the purified bacterial expressed FXRα ligand binding domain (LBD) and a synthetic biotinylated peptide based on residues 676-700 of steroid receptor coactivator-1 (SRC-1) (LXXLL-containing domain-2 where L is the amino acid leucine and X indicates any other amino acid (LCD2), 676-700). The sequence of the SRC-1 peptide used is as published in Iannone, M. A., et al., 2001 Cytometry 44:326-337 where the N-terminus was biotinylated (B) and the C-terminus was amidated. Detection of the associated complex was measured by time resolved fluorescence (TRF). The purified LBD of FXR was labeled with biotin, then mixed with stoichiometric amounts of allophycocyanin (APC) labeled streptavidin (Molecular Probes). The biotinylated peptide was then mixed with a ½ stoichiometric amount of europium labeled streptavidin (Wallac Inc). Each was then blocked with a 5 fold excess of biotin and allowed to equilibrate for 15 min. Equimolar amounts of receptor and peptide were mixed together and were allowed to equilibrate for at least 30 min prior to the addition to either a variable or constant concentrations of the sample for which the affinity is to be determined. After equilibration, the time-resolved fluorescent signal was quantitated using a fluorescent plate reader. The affinity of the test compound was estimated from a plot of fluorescence versus concentration of test compound added.
Ligands that promote the complex formation induce a concentration-dependent increase in time-resolved fluorescent signal.
Human FXRα Ligand Binding Domain (FXRα LBD) was expressed in E. coli strain BL21 (DE3) as an amino-terminal polyhistidine tagged fusion protein. Expression was under the control of an isopropyl-β-D-thiogalactopyranoside (IPTG) inducible T7 promoter. DNA encoding this recombinant protein is subcloned into the pRSET-A expression vector (Invitrogen). The coding sequence of Human FXRα LBD was derived from Genbank accession number U 68233 (amino acids 237 to 472).
Ten-liter fermentation batches were grown in Rich PO4 media with 0.1 mg/mL Ampicillin at 25° C. for 12 hours, cooled to 9° C. and held at that temperature for 36 hours to a density of OD600=14. At this cell density, 0.25 mM IPTG is added and induction proceeded for 24 hours at 9° C., to a final OD600=16. Cells are harvested by centrifugation (20 minutes, 3500×gravity, 4° C.), and concentrated cell slurries were stored in phosphate buffered saline (PBS) at […].
Routinely, 30-40 g cell paste (equivalent to 2-3 liters of the fermentation batch) was resuspended in 200-250 mL Tris buffered saline (TBS), pH 7.2 (25 mM Tris-hydroxymethylamino methane (Tris), 150 mM sodium chloride). Cells were lysed by passing 3 times through a French Press and cell debris was removed by centrifugation (30 minutes, 20,000×gravity, 4° C.). The cleared supernatant was filtered through course pre-filters, and TBS, pH 7.2, 500 mM imidazole was added to obtain a final imidazole concentration of 50 mM. This lysate was loaded onto a column (6×8 cm) packed with Sepharose [Ni^++ charged] Chelation resin (Pharmacia) and pre-equilibrated with TBS pH 7.2/50 mM imidazole. After washing to baseline absorbance with equilibration buffer, the column was washed with one column volume of TBS pH 7.2 containing 90 mM imidazole. FXRα LBD was eluted directly with 365 mM imidazole. Column fractions were pooled and dialyzed against TBS, pH 7.2, containing 0.5 mM EDTA and 5 mM DTT. The dialyzed protein sample was concentrated using Centri-prep 10 K (Amicon) and subjected to size exclusion, using a column (3×90 cm) packed with Sepharose S-75 resin (Pharmacia) pre-equilibrated with TBS, pH 7.2, containing 0.5 mM ethylene diamine tetraacetic acid (EDTA) and 5 mM dithiothreitol (DTT).

EC50, 102 to 1000 nM:
CC(C)c1onc(-c2c(Cl)cccc2Cl)c1COc1ccc2cc(-c3ccc(C(=O)O)cc3)ccc2c1 [Example 22, 4-[6-({[3-(2,6-Dichlorophenyl)-5-(1-methylethyl)-4-isoxazolyl]methyl}oxy)-2-naphthalenyl]benzoic acid]
CC(C)c1onc(-c2c(Cl)cccc2Cl)c1COc1ccc2cc(-c3ccc(CCC(=O)O)cc3)ccc2c1 [Example 23, 3-{4-[6-({[3-(2,6-Dichlorophenyl)-5-(1-methylethyl)-4-isoxazolyl]methyl}oxy)-2-naphthalenyl]phenyl}propanoic acid]
CC(C)c1onc(-c2c(Cl)cccc2Cl)c1COc1ccc2cc(-c3ccc(C(=O)O)cn3)ccc2c1 [Example 24, 6-[6-({[3-(2,6-Dichlorophenyl)-5-(1-methylethyl)-4-isoxazolyl]methyl}oxy)-2-naphthalenyl]-3-pyridinecarboxylic acid]
CC(C)c1onc(-c2c(Cl)cccc2Cl)c1COc1ccc2cc(-c3ccc(C(=O)O)s3)ccc2c1 [Example 25, 5-[6-({[3-(2,6-Dichlorophenyl)-5-(1-methylethyl)-4-isoxazolyl]methyl}oxy)-2-naphthalenyl]-2-thiophenecarboxylic acid]
CC(C)c1onc(-c2c(Cl)cccc2Cl)c1COc1ccc2cc(-c3cccc(N(S(=O)(=O)C(F)(F)F)S(=O)(=O)C(F)(F)F)c3)ccc2c1 [Example 26, N-{3-[6-({[3-(2,6-Dichlorophenyl)-5-(1-methylethyl)-4-isoxazolyl]methyl}oxy)-2-naphthalenyl]phenyl}-1,1,1-trifluoro-N-[(trifluoromethyl)sulfonyl]methanesulfonamide]
CC(=O)N(C(C)=O)c1cccc(-c2ccc3cc(OCc4c(-c5c(Cl)cccc5Cl)noc4C(C)C)ccc3c2)c1 [Example 27, N-acetyl-N-{3-[6-({[3-(2,6-dichlorophenyl)-5-(1-methylethyl)-4-isoxazolyl]methyl}oxy)-2-naphthalenyl]phenyl}acetamide]
CC(C)c1onc(-c2c(Cl)cccc2Cl)c1COc1ccc2cc(-c3cccc(NS(=O)(=O)C(F)(F)F)c3)ccc2c1 [Example 28, N-{3-[6-({[3-(2,6-dichlorophenyl)-5-(1-methylethyl)-4-isoxazolyl]methyl}oxy)-2-naphthalenyl]phenyl}-1,1,1-trifluoromethanesulfonamide]
CC(=O)Nc1cccc(-c2ccc3cc(OCc4c(-c5c(Cl)cccc5Cl)noc4C(C)C)ccc3c2)c1 [Example 29, N-{3-[6-({[3-(2,6-dichlorophenyl)-5-(1-methylethyl)-4-isoxazolyl]methyl}oxy)-2-naphthalenyl]phenyl}acetamide]
CC(C)c1onc(-c2c(Cl)cccc2Cl)c1COc1ccc2cc(-c3cccc(OC(F)(F)F)c3)ccc2c1 [Example 30, 3-(2,6-Dichlorophenyl)-5-(1-methylethyl)-4-{[(6-{3-[(trifluoromethyl)oxy]phenyl}-2-naphthalenyl)oxy]methyl}isoxazole]
CC(=O)Nc1ccc(-c2ccc3cc(OCc4c(-c5c(Cl)cccc5Cl)noc4C(C)C)ccc3c2)cc1 [Example 31, N-{4-[6-({[3-(2,6-dichlorophenyl)-5-(1-methylethyl)-4-isoxazolyl]methyl}oxy)-2-naphthalenyl]phenyl}acetamide]
CC(C)c1onc(-c2c(Cl)cccc2Cl)c1COc1ccc2cc(-c3ccc(NS(=O)(=O)C(F)(F)F)cc3)ccc2c1 [Example 32, N-{4-[6-({[3-(2,6-dichlorophenyl)-5-(1-methylethyl)-4-isoxazolyl]methyl}oxy)-2-naphthalenyl]phenyl}-1,1,1-trifluoromethanesulfonamide]
CC(C)c1onc(-c2c(Cl)cccc2Cl)c1COc1ccc2ccc(-c3cccc(C(=O)O)c3)cc2c1 [Example 33, 3-[7-({[3-(2,6-Dichlorophenyl)-5-(1-methylethyl)-4-isoxazolyl]methyl}oxy)-2-naphthalenyl]benzoic acid]
